The results in this text go back to US20250282760A1 (Merck Sharp & Dohme LLC, priority 2022, published 2025).

The test has as its target T1, human OX2R (Homo sapiens, UniProt O43614).
T1 construct: expressed in transfected cells; host or cells: Chinese hamster ovary (CHO) cells, kept under G418 selection
T1 sequence (O43614 1-444): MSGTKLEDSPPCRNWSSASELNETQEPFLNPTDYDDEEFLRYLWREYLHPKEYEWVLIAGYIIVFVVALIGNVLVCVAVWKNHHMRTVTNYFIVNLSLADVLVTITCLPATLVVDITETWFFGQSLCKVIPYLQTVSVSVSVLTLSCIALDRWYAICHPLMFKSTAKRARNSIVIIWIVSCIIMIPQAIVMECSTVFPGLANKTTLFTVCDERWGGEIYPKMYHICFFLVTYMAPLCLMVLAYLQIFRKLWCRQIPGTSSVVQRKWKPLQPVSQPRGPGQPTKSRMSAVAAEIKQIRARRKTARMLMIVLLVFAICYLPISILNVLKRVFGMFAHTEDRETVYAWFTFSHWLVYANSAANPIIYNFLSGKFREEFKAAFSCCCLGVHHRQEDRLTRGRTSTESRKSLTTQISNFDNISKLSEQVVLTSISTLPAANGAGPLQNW
The test can be described thus: IPOne (IP-1 accumulation) assay of orexin receptor agonist activity in CHO cells expressing human OX2R. The class given is cell-based. As to conditions: for IC50: CHO cells expressing human OX2R, IP-One assay, 2 hours incubation, four parameter logistic fit, read-out: hOX2R_IP IC50; for Emax: CHO, percent activity at maximum tested concentration, relative to reference compound at 1 uM (100% activity) for human OX2R. The source says:
The utility of the compounds in accordance with the present invention as orexin receptor OX1R and/or OX2R agonists may be readily determined without undue experimentation by methodology well known in the art. Both the OX1R and/or OX2R G-coupled protein receptors (GPCRs) couple through the Gαq signaling pathway, which ultimately promotes calcium mobilization via inositol triphosphate (IP3) production. […] The utility of the compounds in accordance with the present invention as orexin receptor OX1R and/or OX2R agonists may be determined utilizing this assay.
In a typical experiment, the OX1 and OX2 receptor agonist activity is determined in accordance with the following general experimental method. Chinese hamster ovary (CHO) cells expressing human OX1R and/or the human OX2R were grown in Iscove's modified DMEM containing glutaMAX™, 1% G418, 100 U/mL penicillin, 100 μg/mL streptomycin and 10% heat-inactivated qualified fetal bovine serum (FBS). […] During this incubation, IP-one detection reagents were prepared (38:1:1 lysis buffer:D2:AB-cryptate reagents).
For each compound, data were fit to a four parameter logistic fit (ActivityBase software) and the EC50 was reported as the inflection point of the resulting curve. Percent effect for each test compound was determined as the percentage of sample raw value/mean max effect, where the mean max effect was derived from the mean raw value of 32 control wells per assay plate (using Orexin A (cat #003-30) at 1 μM for human OX1R and a reference compound at 1 uM with 100% activity previously established by comparison to Orexin A for human OX2R). The intrinsic orexin receptor agonist activity of a compound which may be used in the present invention may be determined by these assays.

For `Cc1ccsc1C(=O)N1CCN(S(=O)(=O)c2ccccc2)CC1C(=O)NCc1ccc2ccccc2c1` (stereo not drawn) [Example 10-12, 1-(3-methylthiophene-2-carbonyl)-N-(naphthalen-2-ylmethyl)-4-(phenylsulfonyl)piperazine-2-carboxamide], the IC50 is 2.43 µM and the Emax was determined as 89.4%.

Take `CC(=O)N1CCN(S(=O)(=O)c2ccccc2)CC1C(=O)NCc1ccc2ccccc2c1` (stereo not drawn) [Example 11, 1-acetyl-N-(naphthalen-2-ylmethyl)-4-(phenylsulfonyl)piperazine-2-carboxamide]: the IC50 worked out at 34.7 µM and the Emax stood at 81.6%.

Consider `CC(C)C(=O)N1C(C)CN(S(=O)(=O)c2ccccc2)CC1C(=O)NCc1ccc(-c2cccnc2)cc1` (stereo not drawn) [Example 42-2, 1-isobutyryl-6-methyl-4-(phenylsulfonyl)-N-(4-(pyridin-3-yl)benzyl)piperazine-2-carboxamide], for which the IC50 is 1.01 µM and the Emax came to 20.6%.

For the molecule `CC(C)C(=O)N1C(C)CN(S(=O)(=O)c2ccccc2)CC1C(=O)NCc1ccc(-c2ccncc2)cc1` (stereo not drawn) [Example 42-3, 1-isobutyryl-6-methyl-4-(phenylsulfonyl)-N-(4-(pyridin-4-yl)benzyl)piperazine-2-carboxamide], the IC50 worked out at 1.01 µM and the Emax turned out to be 4.39%.

In the case of `CC(C)C(=O)N1C(C(=O)NCc2ccc(-c3ccco3)cc2)CN(S(=O)(=O)c2ccccc2)CC1(C)C` (stereo not drawn) [Example 83, N-(4-(furan-2-yl)benzyl)-1-isobutyryl-6,6-dimethyl-4-(phenylsulfonyl)piperazine-2-carboxamide], the IC50 was found to be 0.0939 µM and the Emax came to 89.9%.

`Cc1ccc(S(=O)(=O)N2CCN(C(=O)c3cccs3)C(C(=O)NCc3ccc4ccccc4c3)C2)cc1` (stereo not drawn) [Example 89-1, N-(naphthalen-2-ylmethyl)-1-(thiophene-2-carbonyl)-4-tosylpiperazine-2-carboxamide]: the IC50 was 5.72 µM and the Emax was 60.1%.

With `Cc1cccc(S(=O)(=O)N2CCN(C(=O)c3cccs3)C(C(=O)NCc3ccc4ccccc4c3)C2)c1` (stereo not drawn) [Example 89-2, 4-[(3-methylphenyl)sulfonyl]-N-[(naphthalen-2-yl)methyl]-1-(thiophene-2-carbonyl)piperazine-2-carboxamide], the IC50 is 2.67 µM and the Emax turned out to be 92%.

As to `Cc1ccccc1S(=O)(=O)N1CCN(C(=O)c2cccs2)C(C(=O)NCc2ccc3ccccc3c2)C1` (stereo not drawn) [Example 89-3, 4-[(2-methylphenyl)sulfonyl]-N-[(naphthalen-2-yl)methyl]-1-(thiophene-2-carbonyl)piperazine-2-carboxamide], the IC50 came to 6.57 µM and the Emax is 82.7%.

For `O=C(NCc1ccc2ccccc2c1)C1CN(S(=O)(=O)c2ccccc2Cl)CCN1C(=O)c1cccs1` (stereo not drawn) [Example 89-4, 4-[(2-chlorophenyl)sulfonyl]-N-[(naphthalen-2-yl)methyl]-1-(thiophene-2-carbonyl)piperazine-2-carboxamide], the IC50 was 5.28 µM and the Emax stood at 75.5%.

`N#Cc1ccc(S(=O)(=O)N2CCN(C(=O)c3cccs3)C(C(=O)NCc3ccc4ccccc4c3)C2)cc1` (stereo not drawn) [Example 89-5, 4-[(4-cyanophenyl)sulfonyl]-N-[(naphthalen-2-yl)methyl]-1-(thiophene-2-carbonyl)piperazine-2-carboxamide]: the IC50 is 100 µM and the Emax worked out at 23.1%.

Turning to `N#Cc1cccc(S(=O)(=O)N2CCN(C(=O)c3cccs3)C(C(=O)NCc3ccc4ccccc4c3)C2)c1` (stereo not drawn) [Example 89-6, 4-[(3-cyanophenyl)sulfonyl]-N-[(naphthalen-2-yl)methyl]-1-(thiophene-2-carbonyl)piperazine-2-carboxamide], the IC50 came to 6.09 µM and the Emax came to 67.5%.

Regarding `COc1ccc(S(=O)(=O)N2CCN(C(=O)c3cccs3)C(C(=O)NCc3ccc4ccccc4c3)C2)cc1` (stereo not drawn) [Example 89-7, 4-[(4-methoxyphenyl)sulfonyl]-N-[(naphthalen-2-yl)methyl]-1-(thiophene-2-carbonyl)piperazine-2-carboxamide], the IC50 was 2.6 µM and the Emax is 99.7%.
